This is an account of results in US9144251B2, “High-potency sweetener composition with mineral and compositions sweetened therewith” (The Coca-Cola Company, priority 2005, dated 2015).

This assay is described as follows: Sensory evaluation of sweetness linger and sugar-like taste by a panel of experts (Example Sets G and H). It is filed as in vivo. Also on record: key: 0=no sweetness linger; 1 very slight sweetness linger; 2=slight sweetness linger; 3 moderate sweetness linger; 4=moderately high sweetness linger; 5=high sweetness linger. The settings on record: scale 0-5; for Sweetness Linger rating (defined anchors of the scale): sucrose, 500 ppm of REBA control sample. Here is the method:
Sensory evaluation of the samples prepared in Example Set G was carried out under the following protocol, similar to that described hereinabove. In this test protocol, none of the samples were swallowed. All samples were expectorated and the mouth was rinsed with water after the tasting. Immediately upon sensing maximal sweetness, the sample was expectorated, the mouth was rinsed with water and the rate of sweetness decay (“Sweetness Linger”) was measured, where attention was focused on the sweetness 3-4 min after the water rinse. After sample tasting was complete, a salty oyster cracker was chewed followed by a water rinse, and at least 5 minutes followed before tasting the next sample. The sweetness linger was rated by a panel of experts in the sensory evaluation of foods and beverages using the following scale: 0=no sweetness linger, 1 very slight sweetness linger, 2=slight sweetness linger, 3 moderate sweetness linger, 4=moderately high sweetness linger, 5=high sweetness linger.
The “Sweetness Linger” rating for sucrose observed by this protocol is defined as 0. The Sweetness Linger of a 500 ppm of REBA control sample is defined as 5. Experimental samples were tasted by the same protocol, always allowing sufficient time between samples to ensure re-equilibration of the sensory system. Re-tasting of control samples during the course of the experiment was allowed and encouraged.
The comparison taste test was performed between two controls and addition of sweet taste improving additive on the onset and/or sweetness linger.
Sweet taste improving compositions were combined with a REBA solution to determine their effect on sweetness linger. Screening of the initial sample, or further dilutions, allowed identification of concentrations which were just above-threshold, herein defined as “near-threshold concentrations.” The near-threshold additive concentrations, a 6- to 100-fold higher higher additive concentration (depending on the off-taste intensity), and a mid-level additive concentration (halfway between the near-threshold and higher additive concentration) were evaluated to determine the effect on sweetness linger of a REBA solution.
Formulations of a 500 ppm REBA in a phosphoric acid solution (75%) at a pH of 2.5 with phosphoric acid or a pH of 3.1 with citric acid and potassium citrate were prepared prior to the addition of the additives at the three levels of concentration.
Sensory evaluation using the protocol described in Example Set G then was used to evaluate the sweetness linger of the REBA solutions.

For the molecule `OC[C@H]1O[C@@](CO)(O[C@H]2O[C@H](CO)[C@@H](O)[C@H](O)[C@H]2O)[C@@H](O)[C@@H]1O` [sugar, sucrose], the “Sweetness Linger rating (defined anchors of the scale)” value was determined as 0. Under “8 g of sugar in 100 ml of citrate buffer”, the “sweetness linger rating, control sample” value is 0. Besides, the “sweetness linger rating, control sample” value (10 g of sugar in 100 ml carbon treated water, phosphoric acid (75%) to pH 2.4-2.5) stood at 0.
For rebaudioside A, the “Sweetness Linger rating (defined anchors of the scale)” value stood at 5. Further, where the note is “400 ppm REBA in citric acid/potassium citrate composition equivalent to diet lemon-lime beverage, no additive”, the “sweetness linger rating, control sample” value is recorded as 5. For the same molecule, the “sweetness linger rating, control sample” value (500 ppm in carbon-treated water, phosphoric acid (75%) to pH 2.4-2.5, no additive) came to 5.
